Target: T1, PTGER3 (Homo sapiens, UniProt P43115)
T1 construct: purchased Promega (in-house HiBiT-GPCR construct library, NanoBRET)
T1 sequence (P43115 1-390): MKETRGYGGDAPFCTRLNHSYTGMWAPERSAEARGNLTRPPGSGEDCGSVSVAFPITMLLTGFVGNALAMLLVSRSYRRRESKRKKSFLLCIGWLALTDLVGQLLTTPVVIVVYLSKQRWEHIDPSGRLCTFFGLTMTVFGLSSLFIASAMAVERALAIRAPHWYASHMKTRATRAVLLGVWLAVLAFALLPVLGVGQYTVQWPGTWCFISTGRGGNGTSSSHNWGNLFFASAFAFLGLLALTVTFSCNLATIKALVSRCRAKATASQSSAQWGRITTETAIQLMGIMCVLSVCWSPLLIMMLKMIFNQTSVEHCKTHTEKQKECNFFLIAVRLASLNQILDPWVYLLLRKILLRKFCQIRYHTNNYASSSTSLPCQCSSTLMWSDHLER
Assay: NanoBRET screen HiBiT-PTGER3 in HEK293
Format: binding
Procedure: Each tracer candidate was screened across the entire library of HiBiT-GPCR constructs using NanoBRET as the detection modality. As depicted in Figure 4A, the specificity of interactions was evaluated through decrease in BRET due to competitive displacement of a bound tracer by excess parental compound. Each tracer was analyzed for binding to each HiBiT-GPCR fusion in the absence and in the presence of competing parental compound. Briefly, HEK293 cells were transfected with HiBiT-GPCR constructs diluted into promoterless DNA to reduce expression and maximize translocation to the cell surface. Each tracer candidate was then screened at concentrations of 1 μM and 0.1 μM across cells expressing these fusions. Cells were treated for 1.5 h with tracer either alone or in the presence of 20 μM competing parental compound (i.e., control). BRET was measured upon addition of purified LgBiT and subsequent complementation with HiBiT genetically fused to a GPCR. The specificity of interactions was assessed through a decrease in BRET signal due to competitive displacement of the bound tracer. To further gauge the robustness of these interactions, the fold response over the control (i.e., BRETtracer/BRETcontrol) was calculated. We chose a 1.5-fold response, which translates to ≥7-fold signal over noise as the minimal threshold required to score an interaction as positive. […]. Below we highlight the screening results obtained for our exemplary fluorescent tracers based on Clozapine, Amitriptyline and AZD1283.
HiBiT-GPCR DNA constructs were diluted in 10 mM Tris pH 8 to a final concentration of 0.01 μg/μL, arrayed in 96-well plates and stored at −20 °C. For transfection, HEK293 cells were suspended in Opti-MEM (without phenol red) supplemented with 2% fetal bovine serum (Seradigm) and 100 units/mL penicillin–streptomycin (Gibco) at a final concentration of 220,000 cells/mL and dispensed into white 96-well plates at 90 μL/well. Subsequent transfections and screens were carried using an Agilent Bravo Automated Liquid Handling Platform. First, the 96-well HiBiT DNA arrays were diluted 25-fold in Opti-MEM (without serum or phenol red) to a final concentration of 0.0004 μg/μL and 20 μL of the diluted DNAs were transferred into new 96-well plates. Next, promoterless carrier DNA (1 μg/μL) was diluted 25-fold (0.04 μg/μL) and then dispensed into the diluted arrays at 20 μL/well. Following brief mixing, Viafect transfection reagent (Promega) diluted 16-fold into Opti-MEM was dispensed into the plates at 40 μL/well. After mixing by pipetting, plates were incubated for 10 min on the pipetting station deck. The DNA-transfection reagent complexes were then added to plates containing cells. To facilitate the screen, 10 μL of DNA-transfection reagent complexes were added in duplicates to the top 4 and bottom 4 rows, resulting in two identical 48-well arrays per plate. Plates with transfected cells were incubated for 18–20 h at 37 °C/5% CO2. A screen of each tracer across the entire library using two different concentrations requires duplicate plates of transfected cells. Depending on the number of tracers being screened, transfections can be scaled up using the same ratios. The next day, for each tracer, four 20× screening solutions in tracer dilution buffer (Promega) were prepared: two duplicates at final concentration of 20 μM and two duplicates at a final concentration of 2 μM. A competing unmodified compound was added to one of each duplicate at a final concentration of 400 μM. The four resulting solutions were diluted 4-fold in Opti-MEM without serum or phenol red to generate 5× solutions (5 µM and 0.5 µM tracer +/− 100 μM competing compound). To screen the library, a BioTek MultiFlo FX liquid dispenser was used to dispense 22.5 µL of tracer solution to the top 4 rows and 22.5 µL tracer + competing compound solution to the 4 bottom rows. Plates were briefly mixed on an orbital shaker and incubated for 1.5 h at room temperature. […]

CCOC(=O)c1cc(C#N)c(N2CCC(C(=O)NS(=O)(=O)Cc3ccccc3/C=C/C(=O)NCCNC(=O)CCc3ccc4n3[B-](F)(F)[N+]3=C(c5ccc[nH]5)C=CC3=C4)CC2)nc1C [AZD1283-1-NB590]
NanoBRET Fold Response (PTGER3, 0.1μM): 1.08 | NanoBRET Fold Response (PTGER3, 1μM): 1.10

N#CN=C(NCCCOc1cccc(CN2CCCCC2)c1)NCCNC(=O)CCOCCOCCOCCOCCNC(=O)CCc1ccc2n1[B-](F)(F)[N+]1=C(c3ccc[nH]3)C=CC1=C2 [Aminopotentidine-2-NB590]
NanoBRET Fold Response (PTGER3, tracer 0.1μM): 1.01 | NanoBRET Fold Response (PTGER3, tracer 1μM): 1.01

CN(C)CCC=C1c2ccccc2CCc2ccc(C(=O)NCCNC(=O)CCOCCOCCOCCOCCNC(=O)CCc3ccc4n3[B-](F)(F)[N+]3=C(c5ccc[nH]5)C=CC3=C4)cc21 [Amitriptyline-b-2-NB590]
NanoBRET Fold Response (tracer at 0.1μM): 0.96 | NanoBRET Fold Response (tracer at 1μM): 1.01

COc1ccc2c(n1)c(CCNC(C)=O)cn2CCNC(=O)CCc1ccc2n1[B-](F)(F)[N+]1=C(c3ccc[nH]3)C=CC1=C2 [Azamelatonin-1-NB590]
NanoBRET Fold Response (0.1μM tracer): 1.00 | NanoBRET Fold Response (1μM tracer): 1.25

COc1ccc2[nH]c(-c3ccc(CNC(=O)CCOCCOCCOCCOCCNC(=O)CCc4ccc5n4[B-](F)(F)[N+]4=C(c6ccc[nH]6)C=CC4=C5)cc3)c(CCNC(C)=O)c2n1 [AzomelatoninICO9-2-NB590]
NanoBRET Fold Response (0.1μM tracer): 1.04 | NanoBRET Fold Response (1μM tracer): 1.20

O=C(CCOCCOCCOCCOCCNC(=O)CCc1ccc2n1[B-](F)(F)[N+]1=C(c3ccc[nH]3)C=CC1=C2)NCCCN1CCN(C2=Nc3cc(Cl)ccc3Nc3ccccc32)CC1 [Clozapine-a-2-NB590]
NanoBRET Fold Response (PTGER3, 0.1μM tracer): 1.03 | NanoBRET Fold Response (PTGER3, 1μM tracer): 1.12

CN1CCN(C2=Nc3cc(Cl)ccc3Nc3ccc(CNC(=O)CCOCCOCCOCCOCCNC(=O)CCc4ccc5n4[B-](F)(F)[N+]4=C(c6ccc[nH]6)C=CC4=C5)cc32)CC1 [Clozapine-b-2-NB590]
NanoBRET Fold Response (PTGER3, 0.1μM tracer): 0.97 | NanoBRET Fold Response (PTGER3, 1μM tracer): 0.97

CN1CCN(C2=Nc3cc(Cl)ccc3N(CC(=O)NCCOCCOCCOCCOCCNC(=O)CCc3ccc4n3[B-](F)(F)[N+]3=C(c5ccc[nH]5)C=CC3=C4)c3ccccc32)CC1 [Clozapine-c-2-NB590]
NanoBRET Fold Response (PTGER3, 0.1μM tracer): 1.00 | NanoBRET Fold Response (PTGER3, 1μM tracer): 1.11

O=C(CCOCCOCCOCCOCCNC(=O)CCc1ccc2n1[B-](F)(F)[N+]1=C(c3ccc[nH]3)C=CC1=C2)NCCCN1CCN(C2=Nc3ccccc3Oc3ccc(Cl)cc32)CC1 [Loxapine-a-2-NB590]
NanoBRET Fold Response (PTGER3, tracer 0.1μM): 0.98 | NanoBRET Fold Response (PTGER3, tracer 1μM): 0.98

COc1ccccc1N1CCN(CCCCN2C(=O)c3ccc(CNC(=O)CCOCCOCCOCCOCCNC(=O)CCc4ccc5n4[B-](F)(F)[N+]4=C(c6ccc[nH]6)C=CC4=C5)cc3C2=O)CC1 [NAN-190-2-NB590]
NanoBRET Fold Response (PTGER3, tracer 0.1μM): 1.00 | NanoBRET Fold Response (PTGER3, tracer 1μM): 1.02

COc1ccccc1N1CCN(CCCCN2C(=O)c3ccc(CNC(=O)CCOCCNC(=O)c4ccc(CNC(=O)CCc5ccc6n5[B-](F)(F)[N+]5=C(c7ccc[nH]7)C=CC5=C6)cc4)cc3C2=O)CC1 [NAN-190-3-NB590]
NanoBRET Fold Response (PTGER3, tracer 0.1μM): 0.99 | NanoBRET Fold Response (PTGER3, tracer 1μM): 0.64

O=C(CCc1ccc2n1[B-](F)(F)[N+]1=C(c3ccc[nH]3)C=CC1=C2)NCc1ccc(C(=O)NCCOCCC(=O)N[C@@H]2CC[C@@]3(O)[C@H]4Cc5ccc(O)c6c5[C@@]3(CCN4CC3CC3)[C@H]2O6)cc1 [Naltrexone-3-NB590]
NanoBRET Fold Response (PTGER3, tracer 0.1μM): 0.94 | NanoBRET Fold Response (PTGER3, tracer 1μM): 0.79

Cc1cc2c(s1)Nc1ccccc1N=C2N1CCN(CCCNC(=O)CCOCCOCCOCCOCCNC(=O)CCc2ccc3n2[B-](F)(F)[N+]2=C(c4ccc[nH]4)C=CC2=C3)CC1 [Olanzapine-a-2-NB590]
NanoBRET Fold Response (PTGER3, tracer 0.1μM): 1.00 | NanoBRET Fold Response (PTGER3, tracer 1μM): 0.95

O=C(CCc1ccc2n1[B-](F)(F)[N+]1=C(c3ccc[nH]3)C=CC1=C2)NCc1ccc(C(=O)NCCOCCOCCNCC(O)COc2cccc3ccccc23)cc1 (centres unmarked) [Propranolol-3-NB590]
NanoBRET Fold Response (PTGER3, 0.1μM): 1.04 | NanoBRET Fold Response (PTGER3, 1μM): 1.08

O=C(CCc1ccc2n1[B-](F)(F)[N+]1=C(c3ccc[nH]3)C=CC1=C2)NCCOCCOCCNC(=O)OCCOCCN1CCN(C2=Nc3ccccc3Sc3ccccc32)CC1 [Quetiapine-a-2-NB590]
NanoBRET Fold Response (PTGER3, tracer 0.1μM): 0.97 | NanoBRET Fold Response (PTGER3, tracer 1μM): 1.04

Cc1nc2n(c(=O)c1CCN1CCC(c3noc4cc(F)ccc34)CC1)CCCC2OC(=O)NCCOCCOCCOCCOCCNC(=O)CCc1ccc2n1[B-](F)(F)[N+]1=C(c3ccc[nH]3)C=CC1=C2 (centres unmarked) [Risperidone-2-NB590]
NanoBRET Fold Response (PTGER3, tracer 0.1μM): 0.94 | NanoBRET Fold Response (PTGER3, tracer 1μM): 1.12

CC(C)N(CC[C@H](c1ccccc1)c1cc(CCNC(=O)CCOCCOCCOCCOCCNC(=O)CCc2ccc3n2[B-](F)(F)[N+]2=C(c4ccc[nH]4)C=CC2=C3)ccc1O)C(C)C [Tolterodine-2-NB590]
NanoBRET Fold Response (PTGER3, tracer 0.1μM): 1.14 | NanoBRET Fold Response (PTGER3, tracer 1μM): 0.99

CC(C)N(CC[C@H](c1ccccc1)c1cc(CCNC(=O)c2ccc(CNC(=O)CCc3ccc4n3[B-](F)(F)[N+]3=C(c5ccc[nH]5)C=CC3=C4)cc2)ccc1O)C(C)C [Tolterodine-BZ-NB590]
NanoBRET Fold Response (PTGER3, tracer 0.1μM): 0.99 | NanoBRET Fold Response (PTGER3, tracer 1μM): 1.07

CCCn1c(=O)c2[nH]c(-c3ccc(OCC(=O)NCCNC(=O)CCOCCNC(=O)c4ccc(CNC(=O)CCc5ccc6n5[B-](F)(F)[N+]5=C(c7ccc[nH]7)C=CC5=C6)cc4)cc3)nc2n(CCC)c1=O [XAC-3-NB590]
NanoBRET Fold Response (PTGER3, tracer 0.1μM): 0.97 | NanoBRET Fold Response (PTGER3, tracer 1μM): 1.05

From publication PMC8151276, “An Integrated Approach toward NanoBRET Tracers for Analysis of GPCR Ligand Engagement” (Molecules, 2021)
